We go through 7 molecules from ChEMBL document CHEMBL4765294, “Discovery and evaluation of new compounds targeting ribosomal protein S1 in antibiotic-resistant Mycobacterium Tuberculosis” (Eur J Med Chem, 2020).

The test system of assay [1] is Mycobacterium tuberculosis. Put plainly: Binding affinity to Mycobacterium tuberculosis RpsA Ala438 deleted mutant C-terminal domain (285 to 476 residues) at 500 uM by STD based analysis.
A short description of assay [2]: Binding affinity to Mycobacterium tuberculosis RpsA Ala438 deleted mutant C-terminal domain (285 to 476 residues) assessed as dissociation constant by fluorescence quenching titration based analysis.
The subject of assay [3] is Mycobacterium tuberculosis. Briefly: Binding affinity to Mycobacterium tuberculosis RpsA Ala438 deleted mutant C-terminal domain (285 to 476 residues) assessed as quenching rate constant by fluorescence quenching titration based analysis.

One may read the Kd as a measure of binding affinity in units of concentration.

Active and inactive are the calls of the source. The rule behind the calls is not given here.

With `Cc1cccc(CNC(=O)COc2cc(O)c3c(=O)cc(-c4ccccc4)oc3c2)c1`, the result in assay [1] was Active. Further, in assay [2], the Kd came to 6.91 µM. Moreover, the Kq in assay [3] is 2.33 10^12/M/s.
For `Cc1ccc(CNC(=O)CSc2nc3nc[nH]c3c(=O)[nH]2)cc1` the same measures were “Active”, 8.5 µM and 3.68 10^12/M/s.
The matching figures for `O=C(O)CSc1nc2nc[nH]c2c(=O)[nH]1`: “Active”, 5.11 µM and 1.91 10^12/M/s.
Take `Cc1cccc(CNC(=O)CSc2nc3nc[nH]c3c(=O)[nH]2)c1`: the outcome in assay [1] was Active. Moreover, in assay [2], the Kd turned out to be 4.67 µM. For the same molecule, the Kq in assay [3] is 2.54 10^12/M/s.
For `Cc1ccc(CNC(=O)COc2cc(O)c3c(=O)cc(-c4ccccc4)oc3c2)cc1` the same measures were “Active”, 1.64 µM and 6.64 10^12/M/s.
As for `CC(Sc1nc(N)cc(N)n1)C(=O)O` (centres undefined), the dissociation constant Kd in assay [2] is 1.74 µM.
For the molecule `CCOC(=O)CSc1nc2nc[nH]c2c(=O)[nH]1`, the outcome in assay [1] was Active. In addition, the Kd in assay [2] was 0.31 µM. For the same molecule, the Kq in assay [3] is 3.4 10^12/M/s.
